# System: Clonic Seizures Caused by Pentylenetetrazole in Rats
# Assay: Protection against clonic seizures caused by pentylenetetrazole in rats
# Assay type: in vivo
# Conditions: Rattus norvegicus; dose 25.0 mg/kg, oral or i.p.; pentylenetetrazole 23 mg/kg i.v. at 30 or 60 min; read-out: % of Rats Protected
# Method: The anti-anxiety and anticonvulsant properties of the novel compounds of the present invention have been established in a test which indicates anxiolytic and antiepileptic activity by the measure of protection from convulsions resulting from the administration of pentylenetetrazole. Single or graded dose levels of the test compounds were administered orally or intraperitoneally in a 2% starch vehicle, containing 0.5% v/v polyethylene glycol and one drop of Polysorbate 80 to groups of at least 4 rats. At 30 or 60 minutes, the rats were treated intravenously with pentylenetetrazole at a dose of 23 mg/kg of body weight. This dose is estimated to cause clonic seizures in 99% of unprotected rats. It has been reported [R. T. Hill and D. H. Tedeschi, "Animal Testing and Screening Procedures in Evaluating Psychotropic Drugs" in "An Introduction to Psychopharmacology", Eds. R. R. Rech and K. E. Moore, Raven Press, New York, pp 237-288 (1971)] that there is a high degree of correlation between antagonism of pentylenetetrazole seizures in rats and anti-anxietyor anticonvulsant effects in higher warm-blooded animals.
row,SMILES,responders at 25 mg/kg
1,"Cc1cccc(C(=O)c2cnn3c(-c4cccc(C)c4)ccnc23)c1 [(3-methylphenyl)[7-(3-methylphenyl)pyrazolo[1,5-a]pyrimidin-3-yl]methanone]",25%
2,"Cc1nn2c(-c3cccnc3)ccnc2c1C(=O)c1ccccc1 [[2-methyl-7-(3-pyridinyl)pyrazolo[1,5-a]pyrimidin-3-yl]phenyl-methanone]",50%
3,"COc1ccc(-c2cc(C)nc3c(C(=O)c4ccc(F)cc4)cnn23)cc1OC [[7-(3,4-dimethoxyphenyl)-5-methylpyrazolo[1,5-a]pyrimidin-3-yl](4-fluorophenyl)methanone]",25%
4,"O=C(c1ccc(F)cc1)c1cnn2c(-c3ccccc3F)ccnc12 [(4-fluorophenyl)[7-(2-fluorophenyl)pyrazolo[1,5-a]pyrimidin-3-yl]methanone]",50%
5,"Cc1cc(-c2ccc(Cl)c(Cl)c2)n2ncc(C(=O)c3ccccc3)c2n1 [[7-(3,4-dichlorophenyl)-5-methylpyrazolo[1,5-a]pyrimidin-3-yl]phenyl-methanone]",25%
6,"Cc1cc(-c2cc[n+]([O-])cc2)n2ncc(C(=O)c3ccccc3)c2n1 [[5-Methyl-7-(4-pyridinyl)pyrazolo[1,5-a]pyrimidin-3-yl]phenyl-methanone, pyridine-1-oxide]",25%
7,"O=C(c1cccs1)c1cnn2c(-c3cccnc3)ccnc12 [[7-(3-pyridinyl)pyrazolo[1,5-a]pyrimidin-3-yl]-2-thienyl-methanone]",75%

# System: Brain-Specific Receptors of Rats
# Assay: Inhibition of the binding of 3H-benzodiazepine to brain-specific receptors of rats
# Parameters: species or system rat (Wistar)
# Conditions: 3H-diazepam 1.5 nM or 3H-flunitrazepam 1.0 nM; rat cortex P2 fraction; test concentration not given
row,SMILES,% Inhibition
1,"CC(=O)Nc1ccc(-c2ccnc3c(C(=O)c4ccccc4)cnn23)cc1 [N-[4-(3-Benzoylpyrazolo[1,5-a]pyrimidin-7-yl)phenyl]acetamide]",33%
2,"O=C(c1cccc(F)c1)c1cnn2c(-c3ccc(F)cc3)ccnc12 [(3-fluorophenyl)[7-(4-fluorophenyl)pyrazolo[1,5-a]pyrimidin-3-yl]methanone]",52%
3,"O=C(c1ccco1)c1cnn2c(-c3ccccc3F)ccnc12 [[7-(2-fluorophenyl)pyrazolo[1,5-a]pyrimidin-3-yl]-2-furanyl-methanone]",34%
4,"COc1cc(OC)cc(C(=O)c2cnn3c(-c4cccnc4)ccnc23)c1 [(3,5-dimethoxyphenyl)[7-(3-pyridinyl)pyrazolo[1,5-a]pyrimidin-3-yl]methanone]",30%
5,"O=C(c1cccc(C(F)(F)F)c1)c1cnn2c(-c3ccco3)ccnc12 [[7-(2-furanyl)pyrazolo[1,5-a]pyrimidin-3-yl][3-(trifluoromethyl)phenyl]methanone]",36%
6,"O=C(c1ccc(Cl)cc1)c1cnn2c(-c3cccnc3)ccnc12 [(4-chlorophenyl)[7-(3-pyridinyl)pyrazolo[1,5-a]pyrimidin-3-yl]methanone]",87%
7,"O=C(c1cccc(F)c1)c1cnn2c(-c3cccc(C(F)(F)F)c3)ccnc12 [(3-fluorophenyl)[7-[3-(trifluoromethyl)phenyl]pyrazolo[1,5-a]pyrimidin-3-yl]methanone]",96%
8,"Cc1cccc(C(=O)c2cnn3c(-c4cccc(C)c4)ccnc23)c1 [(3-methylphenyl)[7-(3-methylphenyl)pyrazolo[1,5-a]pyrimidin-3-yl]methanone]",75%
9,"O=C(c1ccccc1)c1cnn2c(-c3ccccc3)ccnc12 [Phenyl(7-phenylpyrazolo[1,5-a]pyrimidin-3-yl)methanone]",55%
10,"Cc1nn2c(-c3cccnc3)ccnc2c1C(=O)c1ccccc1 [[2-methyl-7-(3-pyridinyl)pyrazolo[1,5-a]pyrimidin-3-yl]phenyl-methanone]",52%
11,"CSc1cccc(-c2ccnc3c(C(=O)c4ccccc4)cnn23)c1 [[7-[3-(methylthio)phenyl]pyrazolo[1,5-a]pyrimidin-3-yl]phenyl-methanone]",98%
12,"O=C(c1ccccc1)c1cnn2c(-c3cccc(F)c3)ccnc12 [[7-(3-fluorophenyl)pyrazolo[1,5-a]pyrimidin-3-yl]phenyl-methanone]",88%
13,"O=C(c1ccccc1)c1cnn2c(-c3ccccn3)ccnc12 [phenyl[7-(2-pyridinyl)pyrazolo[1,5-a]pyrimidin-3-yl]methanone]",30%
14,"COc1ccc(-c2cc(C)nc3c(C(=O)c4ccc(F)cc4)cnn23)cc1OC [[7-(3,4-dimethoxyphenyl)-5-methylpyrazolo[1,5-a]pyrimidin-3-yl](4-fluorophenyl)methanone]",48%
15,"N#Cc1ccc(-c2ccnc3c(C(=O)c4ccccc4)cnn23)cc1 [4-(3-benzoylpyrazolo[1,5-a]pyrimidin-7-yl)benzonitrile]",10%
16,"Cc1ccc(C(=O)c2cnn3c(-c4ccsc4)ccnc23)cc1 [(4-methylphenyl)[7-(3-thienyl)pyrazolo[1,5-a]pyrimidin-3-yl]methanone]",58%
17,"O=C(c1ccc(F)cc1)c1cnn2c(-c3ccccc3F)ccnc12 [(4-fluorophenyl)[7-(2-fluorophenyl)pyrazolo[1,5-a]pyrimidin-3-yl]methanone]",22%
18,"O=C(c1ccccc1)c1cnn2c(-c3cc(C(F)(F)F)ccc3Cl)ccnc12 [[7-[2-chloro-5-(trifluoromethyl)phenyl]pyrazolo[1,5-a]pyrimidin-3-yl]phenyl-methanone]",86%
19,"O=C(c1ccccc1)c1cnn2c(-c3cccc(Cl)c3)ccnc12 [[7-(3-chlorophenyl)pyrazolo[1,5-a]pyrimidin-3-yl]phenyl-methanone]",95%
20,"O=C(c1ccccc1)c1cnn2c(-c3cc(Cl)ccc3Cl)ccnc12 [[7-(2,5-dichlorophenyl)pyrazolo[1,5-a]pyrimidin-3-yl]phenyl-methanone]",21%
21,"O=C(c1cccc(C(F)(F)F)c1)c1cnn2c(-c3cccc(C(F)(F)F)c3)ccnc12 [[3-(trifluoromethyl)phenyl][7-[3-(trifluoromethyl)phenyl]pyrazolo[1,5-a]pyrimidin-3-yl]methanone]",56%
22,"O=C(c1ccccc1)c1cnn2c(-c3ccsc3)ccnc12 [phenyl[7-(3-thienyl)pyrazolo[1,5-a]pyrimidin-3-yl]methanone]",96%

row,SMILES,% Inhibition
1,"O=C(c1ccccn1)c1cnn2c(-c3ccccn3)ccnc12 [2-pyridinyl[7-(2-pyridinyl)pyrazolo[1,5-a]pyrimidin-3-yl]methanone]",77%
2,"O=C(c1cccc(C(F)(F)F)c1)c1cnn2c(-c3ccncc3)ccnc12 [[7-(4-pyridinyl)pyrazolo[1,5-a]pyrimidin-3-yl][3-(trifluoromethyl)phenyl]methanone]",99%
3,"Cc1cc(-c2ccc(Cl)c(Cl)c2)n2ncc(C(=O)c3ccccc3)c2n1 [[7-(3,4-dichlorophenyl)-5-methylpyrazolo[1,5-a]pyrimidin-3-yl]phenyl-methanone]",97%
4,"Cc1nn2c(-c3cccc(C(F)(F)F)c3)ccnc2c1C(=O)c1ccccc1 [(2-methyl-7-[3-(trifluoromethyl)phenyl]pyrazolo[1,5-a]pyrimidin-3-yl)phenyl-methanone]",54%
5,"O=C(c1ccc(Cl)cc1)c1cnn2c(-c3ccc(F)cc3)ccnc12 [(4-chlorophenyl)[7-(4-fluorophenyl)pyrazolo[1,5-a]pyrimidin-3-yl]methanone]",16%
6,"Cc1cc(-c2cc[n+]([O-])cc2)n2ncc(C(=O)c3ccccc3)c2n1 [[5-Methyl-7-(4-pyridinyl)pyrazolo[1,5-a]pyrimidin-3-yl]phenyl-methanone, pyridine-1-oxide]",52%
7,"Cc1cc(-c2cccnc2)n2ncc(C(=O)c3ccc(F)cc3)c2n1 [(4-fluorophenyl)[5-methyl-7-(3-pyridinyl)pyrazolo[1,5-a]pyrimidin-3-yl]methanone]",25%
8,"O=C(c1ccccn1)c1cnn2c(-c3cccs3)ccnc12 [2-pyridinyl[7-(2-thienyl)pyrazolo[1,5-a]pyrimidin-3-yl]methanone]",24%
9,"O=C(c1ccc(F)cc1)c1cnn2c(-c3ccccc3)ccnc12 [(4-fluorophenyl)(7-phenylpyrazolo[1,5-a]pyrimidin-3-yl)methanone]",42%
10,"O=C(c1cccs1)c1cnn2c(-c3cccnc3)ccnc12 [[7-(3-pyridinyl)pyrazolo[1,5-a]pyrimidin-3-yl]-2-thienyl-methanone]",82%
11,"CC(=O)Nc1cccc(-c2ccnc3c(C(=O)c4ccccc4)cnn23)c1 [N--[3-(3-benzoylpyrazolo[1,5-a]pyrimidin-7-yl)phenyl]acetamide]",65%
12,"O=C(c1cccc(C(F)(F)F)c1)c1cnn2c(-c3ccccc3)ccnc12 [(7-phenylpyrazolo[1,5-a]pyrimidin-3-yl)[3-(trifluoromethyl)phenyl]methanone]",19%
13,"COc1cc(-c2ccnc3c(C(=O)c4ccccc4)cnn23)cc(OC)c1OC [phenyl[7-(3,4,5-trimethoxyphenyl)pyrazolo[1,5-a]pyrimidin-3-yl]methanone]",24%
14,"O=C(c1cccs1)c1cnn2c(-c3ccncc3)ccnc12 [[7-(4-pyridinyl)pyrazolo[1,5-a]pyrimidin-3-yl]-2-thienyl-methanone]",62%
15,"Cc1cc(-c2cccnc2)n2ncc(C(=O)c3ccccc3)c2n1 [[5-Methyl-7-(3-pyridinyl)pyrazolo[1,5-a]pyrimidin-3-yl]phenyl-methanone]",15%
16,"Cc1cc(-c2ccncc2)n2ncc(C(=O)c3ccccc3)c2n1 [[5-Methyl-7-(4-pyridinyl)pyrazolo[1,5-a]pyrimidin-3-yl]phenyl-methanone]",93%
17,"O=C(c1ccco1)c1cnn2c(-c3ccccc3)ccnc12 [2-Furanyl(7-phenylpyrazolo[1,5-a]pyrimidin-3-yl)methanone]",81%
18,"O=C(c1ccc(F)cc1)c1cnn2c(-c3cc[n+]([O-])cc3)ccnc12 [(4-Fluorophenyl)[7-(4-pyridinyl)pyrazolo[1,5-a]pyrimidin-3-yl]methanone, pyridine-1-oxide]",15%
19,"O=C(c1ccccc1)c1cnn2c(-c3cccs3)ccnc12 [phenyl[7-(2-thienyl)pyrazolo[1,5-a]pyrimidin-3-yl]methanone]",96%
20,"Cc1ccc(C(=O)c2cnn3c(-c4ccccn4)ccnc23)cc1 [(4-methylphenyl)[7-(2-pyridinyl)pyrazolo[1,5-a]pyrimidin-3-yl]methanone]",13%
21,"Cc1cc(-c2cccc(C(F)(F)F)c2)n2ncc(C(=O)c3ccccc3)c2n1 [[5-Methyl-7-[3-(trifluoromethyl)phenyl]pyrazolo[1,5-a]pyrimidin-3-yl]phenyl-methanone]",27%

# From patent publication US4521422A, “Aryl and heteroaryl[7-(aryl and heteroaryl)pyrazolo[1,5-a]pyrimidin-3-yl]methanones” (American Cyanamid Company, priority 1984, dated 1985)
